Where a name gives a salt, the structure may show the parent alone. Read-outs that look alike come from different tables or passages of the source.
Test system: PAM 212 keratinocytes
Assay: PAM 212 keratinocyte growth inhibition assay (photobiological activity; Toxicity, Table I)
Assay type: cell-based
Settings: Mus musculus, PAM212, light or radiation study
Description: Psoriasis, mycosis fungolides, eczema, scleroderma, cancer, and similar proliferative diseases are often characterized by abnormal cell growth regulation. Application of PUVA therapy to correct proliferative disorders on the skin or internally, especially psoriasis, is one clinical expression of photochemotherapy. The use of the assay described in Example 16 is based on the observation that phototherapeutics are extremely potent inhibitors of growth factor binding in mammalian cells including humans and this inhibition arrests the proliferative disorder. This assay was performed in the cell culture laboratory. For a discussion of cell growth assays see, e.g:, J. Laskin et al., Cancer Research, vol. 39, pp. 383-390 (1979) and E. Yurkow and J. Laskin, Cancer Chemotherapy and Pharmacology, vol. 27, pp. 315-319, (1991). Inhibition of cell growth is dependent on dose ol the phototherapeutic and on the quanta of light in the 320-400 nm wavelength (ultraviolet light A). It is also structure-dependent, that is, there is a direct correlation between those specific phototherapeutics currently used that are clinically active and their ability to inhibit the growth of the cells.
Representative examples of the compounds described and claimed herein were tested in this assay for biological activity and found to be potent inhibitors of cell growth. Inhibition of cell growth was rapid, dependent on concentration, and required light activation. […] A description of this assay follows.
The photobiological activity was assayed using a keratinocyte cell line grown in a monolayer culture. In this assay, PAM 212 keratinocytes were grown in Dulbecco's Modified Eagle's medium supplemented with 10% newborn calf serum in a 5% carbon dioxide incubator. Cells were inoculated into 6-well Falcon plastic culture dishes at 25,000 cells per well. After 24 hours, the medium was charged to fresh growth medium supplemented with increasing concentrations of the test compounds or the control medium. Controls and test concentrations were analyzed in triplicate.
These plates were then incubated in a 37° C. carbon dioxide incubator. […] The incident light on the culture plates was 2.4 mW/cm^2 as measured with an International Light UV radiometer, Model IL 442A. […]
After completion of the irradiation phase, the cell culture medium was drained, the cells refed with fresh growth medium and then re-incubated in the carbon dioxide incubator to allow for cell growth. After 4-5 days of growth the culture plates were removed from the incubator and the cell culture medium was drained. The cells were detached from the plates with trypsin and counted in a Coulter Counter. For control cells or for cells treated with test compounds, cell growth was determined as a percentage of control. […] This value is shown in Table I for a variety of phototherapeutics.

[1] = with UVA (320-400 nm) 1.28 J/square centimeter after 30 minutes incubation, 4-5 days of growth, read-out: Photo-toxicity (IC50 values), concentration at which photoactivated test compound inhibited growth by 50%
[2] = dark (no UVA light), read-out: Dark-toxicity (IC50 values)

## Cc1cc(=O)oc2c(C)c(O)c([N+](=O)[O-])cc12 [Example 1, 6-Nitro-4,8-dimethyl-7-hydroxycoumarin]
[1]
  IC50: > 300 µM

## C=CCOc1c([N+](=O)[O-])cc2c(C)cc(=O)oc2c1C [Example 2, 6-Nitro-4,8-dimethyl-7-allyloxycoumarin]
[2]
  IC50: > 100 µM
[1]
  IC50: 5 µM

## C=CCOc1c(N)cc2c(C)cc(=O)oc2c1C [Example 3, 6-Amino-4.8-dimethyl-7-allyloxycoumarin]
[2]
  IC50: > 100 µM
[1]
  IC50: 240 µM

## Cc1cc(=O)oc2c(C)c3c(cc12)C(CI)CO3 (stereo not shown) [Example 5, 4,8-Dimethyl-4'-iodomethyl-4',5'-dihydropsoralen]
[2]
  IC50: > 100 µM
[1]
  IC50: 0.1 µM

## Cc1c(Br)c(=O)oc2c(C)c3c(cc12)C(CI)CO3 (stereo not shown) [Example 6, 3-Bromo-4,8-dimethyl-4'-iodomethyl-4',5'-dihydropsoralen]
[1]
  IC50: 0.2 to 0.5 µM

## Cc1cc(=O)oc2c(C)c3c(cc12)C(C[n+]1ccccc1)CO3 (stereo not shown) [Example 9, 4,8-Dimethyl-4'-pyridiniummethyl-4',5'-dihydropsoralen Iodide Salt]
[1]
  IC50: 0.5 µM

## Cc1c(Br)c(=O)oc2c(C)c3c(cc12)C(C[n+]1ccccc1)CO3 (stereo not shown) [Example 12, 3-Bromo-4,8-dimethyl-4'-pyridiniummethyl-4',5'-dihydropsoralen Iodide Salt]
[2]
  IC50: 70 µM
[1]
  IC50: > 30 µM

## Cc1cc(=O)oc2c(C)c3c(cc12)C(CC#N)CO3 (stereo not shown) [Example 15, 4,8-Dimethyl-4'-cyanomethyl-4',5'-dihydropsoralen]
[2]
  IC50: > 100 µM
[1]
  IC50: 3 µM

— patent US6177424A, “4'-Substituted-4',5'-dihydropsoralens and therapeutical uses thereof” (priority 1999, dated 2001)
